The values below come from PMC11809180, “RA-PR058, a novel ramalin derivative, reduces BACE1 expression and phosphorylation of tau in Alzheimer’s disease mouse models” (Animal Cells and Systems, 2025).

Common to all, as to assay type: in vivo, mouse
Experiment [1] relates to 3xTg-AD mice. The experiment in a line: Elevated plus maze test in 3xTg-AD mice. Conditions: 20 mg/kg oral daily for 1 month, vs vehicle-treated 3xTg-AD. The method, then: (§1) 3xTg-AD (B6;129-Tg(APPSwe,tauP301L)1Lfa Psen1^tm1Mpm/Mmjax) mice and their littermate wild-type (WT) mice were used in this study. Each experimental group consisted of 4–8 mice, with groups designated as WT, 3xTg-AD Vehicle, and 3xTg-AD RA-PR058. All mice were maintained in a 12-hour light/dark cycle with free access to food and water. 7-month-old age of mice were administered with 20 mg/kg of RA-PR058 orally once a day for 1 month followed by the elevated plus maze test. All animal experimental procedures were approved by the Institutional Animal Care and Use Committee of Sungkyunkwan University (SKKUIACUC2022-10-41-1).
The elevated plus maze (EPM) test is a widely used behavioral assay to assess anxiety-like behavior in mice (Walf and Frye [2007]). After administering RA-PR058 for 1 month, EPM was performed to evaluate its effects. Briefly, the mouse was placed in the center of the maze, facing an open arm, and allowed to explore freely for 5 minutes. Behavioral patterns were recorded and analyzed by EthoVision software (Noldus). Data were used to assess the effects of RA-PR058 on anxiety-like behavior compared to control mice.

Experiment [2] concerns tau. The experiment in a line: Tau phosphorylation in brain of 3xTg-AD mice (western blot, DAB staining). Conditions: 20 mg/kg oral daily 4 weeks. The method, then:
as §1
After EPM was conducted, mice were sacrificed, and brain tissues were collected as previously described (Park et al. [2021]). Mice were anesthetized by injecting Zoletil (Virbac) and Rompun (Bayer) intraperitoneally. After mice were anesthetized, they were perfused with phosphate-buffered saline (PBS). Then, brains were extracted and cut into two hemispheres; one hemisphere was preserved in 4% paraformaldehyde and the other was dissected into the cortex and hippocampus. Dissected tissues were then snap-frozen in liquid nitrogen and stored at −80 ℃ until further biochemical analysis.
Samples for western blot analysis were prepared as previously described (Gwon et al. [2012]). Cells were lysed with T-PER™ Tissue Protein Extraction Reagent (Thermo Fisher Scientific) supplemented with protease/phosphatase inhibitor cocktail (Thermo Fisher Scientific) and incubated at 4 ℃ for 10 minutes. After incubation, lysed samples were centrifuged at 13,000 x rpm for 10 minutes at 4 ℃ and the supernatant were used for western blot analysis. The cortices and hippocampi tissues were homogenized using RIPA lysis buffer (Millipore) supplemented with protease/phosphatase inhibitor cocktail and incubated at 4 ℃ for 30 minutes. Following incubation, lysed tissues were centrifuged at 13,000 x rpm for 30 minutes at 4 ℃ and the supernatant were used for western blot analysis. Protein concentrations were measured using Pierce™ BCA Protein Assay Kits (Thermo Fisher Scientific). Equal amounts of proteins were mixed with NuPAGE™ LDS Sample Buffer (Invitrogen) and 5% 2-mercaptoethanol (Sigma) and then boiled at 95 ℃ for 5 minutes. 4–12 μg of proteins were loaded onto SDS-polyacrylamide gels and electrophoresed (SDS-PAGE) until the protein bands were fully separated. After SDS-PAGE, the protein bands were transferred onto polyvinylidene fluoride (PVDF) membranes (Millipore). Following transfer, PVDF membranes were blocked with 5% non-fat skim milk in tris-buffered saline with Tween20 (Junsei) (TBS-T) for 1 hour at room temperature. Then, PVDF membranes were incubated overnight at 4 ℃ with primary antibodies against APP (6E10, BioLegend, 803001, 1:1,000), AT8 (Invitrogen, MN1020, 1:1,000), AT180 (Invitrogen, MN1040, 1:1,000), BACE1 (Cell Signaling Technology, 5606, 1:1,000), β-Actin (Sigma, A5441, 1:10,000), p-JNK (Cell Signaling Technology, 4671, 1:1,000), JNK (Cell Signaling Technology, 9252, 1:1,000), p-Tau^S396 (Invitrogen, 44-752G, 1:1,000), Tau13 (BioLegend, 835201, 1:1,000). Following incubation, membranes were washed with TBS-T and incubated with horseradish peroxidase-conjugated anti-mouse secondary antibody (Sigma, AP124P, 1:5,000) or anti-rabbit secondary antibody (Invitrogen, 31460, 1:5,000) for 1 hour at room temperature. […] Protein bands were quantified using ImageJ (NIH). […]
On the technique in general: In western blotting, separated proteins are transferred to a membrane and probed.

In experiment [3] the test system is BACE1. The experiment in a line: BACE1 expression in brain of 3xTg-AD mice (western blot). Conditions: 20 mg/kg oral daily 4 weeks. The method, then:
as §1
After EPM was conducted, mice were sacrificed, and brain tissues were collected as previously described (Park et al. [2021]). Mice were anesthetized by injecting Zoletil (Virbac) and Rompun (Bayer) intraperitoneally. After mice were anesthetized, they were perfused with phosphate-buffered saline (PBS). Then, brains were extracted and cut into two hemispheres; one hemisphere was preserved in 4% paraformaldehyde and the other was dissected into the cortex and hippocampus. […]
Samples for western blot analysis were prepared as previously described (Gwon et al. [2012]). […] Protein concentrations were measured using Pierce™ BCA Protein Assay Kits (Thermo Fisher Scientific). […] Protein bands were quantified using ImageJ (NIH).

For the compound `Cl.N[C@@H](CCC(=O)NNc1ccccc1F)C(F)F` [RA-PR058, (S)-4-amino-5,5-difluoro-N'-(2-fluorophenyl)pentanehydrazide hydrochloride], the “Time spent in open arms of the EPM” value in experiment [1] is listed as “significantly more time”. Further, in experiment [2] (cortex, normalized with Tau13), the “Tau phosphorylation at Ser202/Thr205 (AT8)” value was “significantly reduced”, the “Tau phosphorylation at Ser396” value is “significantly reduced” and the “Tau phosphorylation at Thr231 (AT180)” value is given as “significantly reduced”. Moreover, the “AT8 expression in the hippocampus” value in experiment [2] (hippocampus) is “significantly reduced”. Also, the “Other phosphorylated tau species in the hippocampus” value in experiment [2] (hippocampus, AT180, p-Tau S396) was “did not affect”. For the same compound, in experiment [3] (cortex, normalized with β-Actin), the “Cortical BACE1 expression” value is “significantly reduced”. In addition, the “BACE1 expression in the hippocampus” value in experiment [3] (hippocampus) is on record as “did not affect”.
